Experimental data taken from ChEMBL document CHEMBL1165960, “Identification of the three-dimensional pharmacophore of kappa-opioid receptor agonists” (Bioorg Med Chem, 2010).

Assays:
[1] = molecular target: Kappa-type opioid receptor (Homo sapiens, UniProt P41145); experiment: Binding affinity to kappa opioid receptor
[2] = Selectivity ratio of Ki for mu opioid receptor to kappa opioid receptor

Chain of Kappa-type opioid receptor (P41145 whole entry): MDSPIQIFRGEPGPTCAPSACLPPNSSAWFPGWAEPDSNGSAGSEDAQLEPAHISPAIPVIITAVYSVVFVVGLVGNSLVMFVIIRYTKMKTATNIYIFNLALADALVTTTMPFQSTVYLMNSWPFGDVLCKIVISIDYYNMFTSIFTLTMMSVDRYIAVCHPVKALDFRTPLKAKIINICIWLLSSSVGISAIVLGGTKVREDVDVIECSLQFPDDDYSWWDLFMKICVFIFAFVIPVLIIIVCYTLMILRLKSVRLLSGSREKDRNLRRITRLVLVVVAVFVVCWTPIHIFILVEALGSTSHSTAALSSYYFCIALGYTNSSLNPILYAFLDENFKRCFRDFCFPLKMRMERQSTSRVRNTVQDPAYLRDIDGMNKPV

COc1ccc([C@H]2CN3C(=NC[C@@H]3C)N2CCCc2ccccc2)cc1
Ki [1]: 39 nM

CCC12CCN(CC3(O)CC3)C(Cc3ccc(O)cc31)C2(C)C (stereo unspecified) [BREMAZOCINE]
Ki [1]: 0.04 nM
Ratio Ki [2]: 3.8

CN(C(=O)/C=C/c1ccco1)[C@@H]1CC[C@@]2(O)[C@H]3Cc4ccc(O)c5c4[C@@]2(CCN3CC2CC2)[C@H]1O5
Ratio Ki [2]: 2.6

O=C(NC[C@H]1C[C@]23CCN(CC4CC4)[C@H](Cc4ccc(O)cc42)[C@]3(O)CO1)c1ccccc1
Ki [1]: 0.135 nM
Ratio Ki [2]: 1

O=C(Nc1ccccc1)[C@@H]1O[C@@]23CC[C@@]1(O)[C@@H]1Oc4c(O)ccc5c4[C@@]12CCN(CC1CC1)[C@@H]3C5
Ki [1]: 0.152 nM
Ratio Ki [2]: 1.3

NC(=O)[C@H]1CSSC[C@@H](NC(=O)[C@@H](N)Cc2ccc(O)cc2)C(=O)N[C@@H](Cc2ccccc2)C(=O)N1
Ki [1]: 38.7 nM
Ratio Ki [2]: 0.03

O=C(Nc1ccccc1)[C@H]1O[C@@]23CCC1(O)[C@@H]1Oc4c(O)ccc5c4[C@@]12CCN(CC1CC1)[C@@H]3C5 (single isomer, unassigned)
Ki [1]: 0.111 nM
Ratio Ki [2]: 1.9

COC(=O)[C@]12CN(C)C[C@](C(=O)OC)(C1=O)[C@@H](c1ccccn1)N(C)[C@H]2c1ccccn1
Ki [1]: 15 nM
Ratio Ki [2]: > 66.7

CN1c2ccccc2C(c2ccccc2F)=NCC1CNC(=O)c1ccsc1 (stereo unspecified) [TIFLUADOM]
Ki [1]: 0.17 nM
Ratio Ki [2]: 8.8
